Read-outs that look alike come from different tables or passages of the source.
How the values were obtained:
[1] = type: in vivo; details: 24 h post ip. ^131I; stable iodine given 2 h post ^131I
[2] = type: in vivo; details: stable iodine equivalent to 100 mg/70 Kg adult per day administered orally, 2 h post i.p. ^131I
[3] = type: in vivo; details: rats; 24 h post oral ^131I; stable iodide equivalent to 100 mg/70 Kg adult given orally 2 h post ^131I
[4] = type: in vivo; details: stable iodine equivalent to 100 mg/70 Kg adult per day mixed with diet, 2 h post i.p. ^131I
[5] = Percent binding capacity of *Cs at different pH; type: physicochemical
DNA damage = details: FIG. 3
[6] = some subjects; cited from earlier work
[7] = experimental animals
[8] = Whole body retention of ^137Cs, CKF vs Prussian Blue; type: in vivo
[9] = tested on: rat bone marrow erythrocytes; type: in vivo; details: FIG. 2
Text: […]. The geno-toxicity assessment of [CaK2Fe(CN)6] and Prussian Blue for the formation of micronuclei (i.e. part of parent nucleus, which is left behind in the cytoplasm as a daughter nuclei, due to damage to chromosomes during cell division).

[K+].[O-][I+2]([O-])[O-] [KIO3]
Percent ^131I WBR [1]: 40 ± 2% | Percent ^131I in BLOOD [1]: 1.6 ± 0.4% | Percent ^131I in CARCAS [1]: 17 ± 2% | Percent ^131I in EXCRETA [1]: 64 ± 5% | Percent ^131I in LIVER + GUT [1]: 16 ± 1% | Percent ^131I in THYROID [1]: 10 ± 1% | WHOLE BODY RETENTION OF RADIO-IODINE ([2]; day 1): 28 ± 4 | WHOLE BODY RETENTION OF RADIO-IODINE ([2]; day 2): 12 ± 2 | WHOLE BODY RETENTION OF RADIO-IODINE ([2]; day 3): 10 ± 3 | WHOLE BODY RETENTION OF RADIO-IODINE ([2]; day 4): 8 ± 1 | WHOLE BODY RETENTION OF RADIO-IODINE ([2]; day 5): 7 ± 2 | WHOLE BODY RETENTION OF RADIO-IODINE ([2]; day 6): 7 ± 4 | WHOLE BODY RETENTION OF RADIO-IODINE ([2]; day 7): 8 ± 2 | WHOLE BODY RETENTION OF RADIO-IODINE ([2]; day 9): 6 ± 2 | Percent ^131I WBR [3]: 14 ± 3 percent administered dose | Percent ^131I in BLOOD [3]: 0.6 ± 0.05 percent administered dose | Percent ^131I in CARCAS [3]: 8 ± 0.5 percent administered dose | Percent ^131I in EXCRETA [3]: 81 ± 1 percent administered dose | Percent ^131I in LIVER + GUT [3]: 7 ± 0.5 percent administered dose | Percent ^131I in THYROID [3]: 4 ± 0.5 percent administered dose | WHOLE BODY RETENTION OF RADIO-IODINE ([4]; day 1): 28 ± 3 | WHOLE BODY RETENTION OF RADIO-IODINE ([4]; day 2): 12 ± 2 | WHOLE BODY RETENTION OF RADIO-IODINE ([4]; day 3): 10 ± 4 | WHOLE BODY RETENTION OF RADIO-IODINE ([4]; day 4): 8 ± 2 | WHOLE BODY RETENTION OF RADIO-IODINE ([4]; day 5): 7 ± 3 | WHOLE BODY RETENTION OF RADIO-IODINE ([4]; day 6): 7 ± 1 | WHOLE BODY RETENTION OF RADIO-IODINE ([4]; day 7): 8 ± 2 | WHOLE BODY RETENTION OF RADIO-IODINE ([4]; day 9): 6 ± 3 | WHOLE BODY RETENTION OF RADIO-IODINE ([4]; day 10): 3 ± 4 | WHOLE BODY RETENTION OF RADIO-IODINE ([4]; day 11): 2 ± 1 | WHOLE BODY RETENTION OF RADIO-IODINE ([4]; day 13): 2 ± 2 | WHOLE BODY RETENTION OF RADIO-IODINE ([4]; day 14): 1 ± 1

[C-]#N.[C-]#N.[C-]#N.[C-]#N.[C-]#N.[C-]#N.[C-]#N.[C-]#N.[C-]#N.[C-]#N.[C-]#N.[C-]#N.[C-]#N.[C-]#N.[C-]#N.[C-]#N.[C-]#N.[C-]#N.[Fe+2].[Fe+2].[Fe+2].[Fe+3].[Fe+3].[Fe+3].[Fe+3] [PB, ferric hexa-cyanoferrate (II)]
binding with *Cs ([5]; FIG. 4, neutral pH): weaker binding | PERCENT BINDING CAPACITY of *Cs ([5]; pH 2): 27 ± 2% | PERCENT BINDING CAPACITY of *Cs ([5]; pH 3): 58 ± 0.7% | PERCENT BINDING CAPACITY of *Cs ([5]; pH 4): 75 ± 0.4% | PERCENT BINDING CAPACITY of *Cs ([5]; pH 5): 75 ± 0.3% | PERCENT BINDING CAPACITY of *Cs ([5]; pH 6): 67 ± 0.6% | PERCENT BINDING CAPACITY of *Cs ([5]; pH 7): 59 ± 0.9% | DNA damage in alkaline comet assay (DNA damage): do not induce any apparent DNA damage | constipation [6]: induce constipation in some subjects | gastro-intestinal and cardio-toxicity (histo-pathologic changes) [7]: induces gastro-intestinal and cardio-toxicity | WHOLE BODY RETENTION - ^137Cs ([8]; day 0): 100 percent administered dose | WHOLE BODY RETENTION - ^137Cs ([8]; day 1): 61 ± 10 percent administered dose | WHOLE BODY RETENTION - ^137Cs ([8]; day 4): 31 ± 4 percent administered dose | WHOLE BODY RETENTION - ^137Cs ([8]; day 8): 21 ± 3 percent administered dose | WHOLE BODY RETENTION - ^137Cs ([8]; day 12): 15 ± 2 percent administered dose | WHOLE BODY RETENTION - ^137Cs ([8]; day 16): 11 ± 2 percent administered dose | WHOLE BODY RETENTION - ^137Cs ([8]; day 20): 7 ± 1 percent administered dose | WHOLE BODY RETENTION - ^137Cs ([8]; day 24): 6 ± 1 percent administered dose | WHOLE BODY RETENTION - ^137Cs ([8]; day 28): 5 ± 1 percent administered dose | speed of removing *Cs from in vivo system ([8]; experimental animals): slow | micronuclei formation, means±SE versus control ([9]; all the tested doses): not significantly different from control | geno-toxicity, micronuclei formation ([9]; dose of 5 mg/100 g BW (equivalent to 3.5 g/d/70 Kg adult)): did not induce any toxicity | geno-toxicity, micronuclei formation ([9]; five and ten times the dose of 5 mg/100 g BW): marginal increase in the formation of micronuclei
